Here are results for five compounds from paper PMC4582009 (Bioorganic & medicinal chemistry, 2015).

Structures are written as SMILES.

The target in test [1] is cloned human δ opioid receptor (Homo sapiens, UniProt P41143). In words: biochemical.
In test [2] the target is cloned human κ opioid receptor (Homo sapiens, UniProt P41145). Put plainly: biochemical. It counts as biochemical. As to conditions: for times less potent than JDTic as a κ opioid receptor antagonist: ratio of κ Ke values vs JDTic.
Chain of cloned human κ opioid receptor (P41145 whole entry): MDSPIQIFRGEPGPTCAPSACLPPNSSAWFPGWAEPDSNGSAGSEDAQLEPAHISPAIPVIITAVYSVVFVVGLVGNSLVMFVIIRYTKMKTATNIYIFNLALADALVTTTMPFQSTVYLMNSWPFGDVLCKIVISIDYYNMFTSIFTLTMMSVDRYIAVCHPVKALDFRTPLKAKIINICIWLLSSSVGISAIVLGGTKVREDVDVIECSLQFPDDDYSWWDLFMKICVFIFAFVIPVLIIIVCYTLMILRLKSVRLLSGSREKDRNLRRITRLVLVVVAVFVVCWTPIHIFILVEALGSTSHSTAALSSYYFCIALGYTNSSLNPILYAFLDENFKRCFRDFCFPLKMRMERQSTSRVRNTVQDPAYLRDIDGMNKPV
Test [3] has as its target cloned human μ opioid receptor (Homo sapiens, UniProt P35372). It counts as biochemical. Conditions: ratio of μ Ke values vs 3b.

Chain of cloned human δ opioid receptor (P41143 whole entry): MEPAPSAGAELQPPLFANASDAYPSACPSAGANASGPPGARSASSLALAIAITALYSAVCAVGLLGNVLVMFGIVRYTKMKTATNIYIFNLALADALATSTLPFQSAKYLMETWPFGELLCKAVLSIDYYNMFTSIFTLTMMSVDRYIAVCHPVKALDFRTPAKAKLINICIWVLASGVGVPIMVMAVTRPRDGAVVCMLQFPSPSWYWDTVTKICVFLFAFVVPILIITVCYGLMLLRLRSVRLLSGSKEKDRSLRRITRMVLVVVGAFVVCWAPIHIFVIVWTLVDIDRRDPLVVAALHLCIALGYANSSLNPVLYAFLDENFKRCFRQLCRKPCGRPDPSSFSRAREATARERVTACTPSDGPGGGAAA
Chain of cloned human μ opioid receptor (P35372 whole entry): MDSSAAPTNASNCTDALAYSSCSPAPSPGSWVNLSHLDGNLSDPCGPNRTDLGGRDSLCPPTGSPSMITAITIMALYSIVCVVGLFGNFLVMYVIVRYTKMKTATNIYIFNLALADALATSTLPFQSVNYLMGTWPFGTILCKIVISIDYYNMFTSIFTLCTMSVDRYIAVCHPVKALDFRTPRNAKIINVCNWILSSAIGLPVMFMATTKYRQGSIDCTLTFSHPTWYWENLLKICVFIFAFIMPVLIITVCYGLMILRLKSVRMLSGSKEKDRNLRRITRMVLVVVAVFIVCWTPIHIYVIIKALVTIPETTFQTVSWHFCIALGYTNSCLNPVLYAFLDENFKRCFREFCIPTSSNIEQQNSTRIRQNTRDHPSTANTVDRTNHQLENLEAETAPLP

`CC(C)[C@@H](CN1CCC(C)(c2cccc(O)c2)CC1)NC(=O)[C@H]1Cc2ccc(O)cc2CN1` [Compound 4a, (3R)-7-Hydoxy-N-[(1S)-1-{[4-(3-hydroxyphenyl)-4-methylpiperidin-1-yl]methyl}-2-methylpropyl]-1,2,3,4-tetrahydroisoquinoline-3-carboxamide] registered a Kb in test [1] of 927 ± 350 nM. The “times less potent than JDTic as a κ opioid receptor antagonist” value (“times less potent than JDTic” for short) in test [2] is 35 fold.

On to `CC(C)[C@@H](CN1CCC(C)(c2cccc(F)c2)CC1)NC(=O)[C@H]1Cc2ccc(O)cc2CN1` [Compound 4b, (3R)-N-[(1S)-1-{[4-(3-fluorophenyl)-4-methylpiperidin-1-yl]methyl}-2-methylpropyl]-7-hydroxy-1,2,3,4-tetrahydroisoquinoline-3-carboxamide], for which the “times less potent than JDTic” value in test [2] was 9 fold. Moreover, in the test on opioid receptors, the “functional profile in the [35S]GTPγS test” value is reported as “pure opioid antagonist”.

As for `CC[C@H](C)[C@@H](CN1CCC(C)(c2cccc(F)c2)CC1)NC(=O)[C@H]1Cc2ccc(O)cc2CN1` [Compound 4c, (3R)-N-[(1S,2S)-1-{[4-(3-Fluorophenyl)-4-methylpiperidin-1-yl]methyl}-2-methylbutyl]-7-hydroxy-1,2,3,4-tetrahydroisoquinoline-3-carboxamide], the Kb in test [1] amounted to 903 ± 200 nM. For the same compound, in test [2], the δ/κ is given as 27,363 and the μ/κ is on record as 342.

`CC(C)[C@@H](CN1CCC(c2ccccc2)CC1)NC(=O)[C@H]1Cc2ccc(O)cc2CN1` [Compound 4e, (3R)-7-Hydroxy-N-{(1S)-2-methyl-1-[(4-phenylpiperidin-1-yl]methyl]propyl}-1,2,3,4-tetrahydroisoquinoline-3-carboxamide] displayed a Kb in test [1] of 281 ± 44 nM. In test [2], the Kb came to 0.051 ± 0.01 nM and the “times less potent than JDTic” value is 2.6 fold. Besides, in test [2] (ratio of κ Ke values vs 3a), the “times less potent than 3a as a κ antagonist” value stood at 2 fold.

With `CC(C)[C@@H](CN1CCC(c2cccc(F)c2)CC1)NC(=O)[C@H]1Cc2ccc(O)cc2CN1` [Compound 4f, (3R)-N-[(1S)-1-{[4-(3-Fluorophenyl)piperidin-1-yl]methyl}-2-methylpropyl]-7-hydroxy-1,2,3,4-tetrahydroisoquinoline-3-carboxamide], in test [3], the “times more potent as a μ antagonist than 3b” value amounted to 4 fold.
